The record followed here is US10829452B2, “Histone methyltransferase inhibitors” (GLOBAL BLOOD THERAPEUTICS, INC., priority 2016, dated 2020).

This assay deals with T1, G9a (Homo sapiens, UniProt Q96KQ7).
T1 sequence (Q96KQ7 1-1210): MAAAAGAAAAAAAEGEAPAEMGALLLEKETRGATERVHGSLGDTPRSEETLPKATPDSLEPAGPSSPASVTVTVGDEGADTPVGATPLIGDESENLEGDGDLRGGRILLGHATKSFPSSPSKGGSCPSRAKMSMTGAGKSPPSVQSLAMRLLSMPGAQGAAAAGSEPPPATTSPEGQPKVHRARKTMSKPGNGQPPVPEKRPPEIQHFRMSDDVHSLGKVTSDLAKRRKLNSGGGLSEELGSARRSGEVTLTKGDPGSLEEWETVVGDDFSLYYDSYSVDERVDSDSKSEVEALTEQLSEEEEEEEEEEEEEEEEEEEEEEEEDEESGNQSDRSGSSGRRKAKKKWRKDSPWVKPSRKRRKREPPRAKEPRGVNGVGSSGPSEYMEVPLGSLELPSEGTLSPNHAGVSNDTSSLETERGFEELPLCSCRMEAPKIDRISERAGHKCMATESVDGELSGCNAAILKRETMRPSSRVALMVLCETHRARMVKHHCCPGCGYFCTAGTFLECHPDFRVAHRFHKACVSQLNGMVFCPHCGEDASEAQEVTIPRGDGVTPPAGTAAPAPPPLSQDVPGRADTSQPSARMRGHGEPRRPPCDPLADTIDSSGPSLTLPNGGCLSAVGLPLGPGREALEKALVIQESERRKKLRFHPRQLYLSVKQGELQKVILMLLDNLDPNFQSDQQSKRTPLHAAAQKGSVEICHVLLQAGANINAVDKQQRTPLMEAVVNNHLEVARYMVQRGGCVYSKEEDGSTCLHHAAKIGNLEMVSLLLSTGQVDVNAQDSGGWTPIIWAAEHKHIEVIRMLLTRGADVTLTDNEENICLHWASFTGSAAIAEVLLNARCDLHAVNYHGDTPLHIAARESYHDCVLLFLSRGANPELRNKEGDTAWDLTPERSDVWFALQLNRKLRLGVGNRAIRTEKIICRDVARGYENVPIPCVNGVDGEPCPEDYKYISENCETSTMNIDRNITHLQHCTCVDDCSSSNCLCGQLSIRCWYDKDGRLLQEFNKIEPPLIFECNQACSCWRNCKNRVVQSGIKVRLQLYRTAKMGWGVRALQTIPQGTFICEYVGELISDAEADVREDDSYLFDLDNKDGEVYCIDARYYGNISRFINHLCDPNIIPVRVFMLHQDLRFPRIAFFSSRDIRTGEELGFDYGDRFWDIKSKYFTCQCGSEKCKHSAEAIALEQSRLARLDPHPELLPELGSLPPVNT
Kind of assay: G9a AlphaLISA enzymatic activity assay. To be noted: 0.15 nM G9a, 15 uM S-adenosyl-methionine, 100 nM biotinylated histone 3 peptide (1-21), 1 hour at room temperature; read-out: G9a in (uM) (IC50, concentration that produced 50% inhibition). Type of assay: biochemical. The text has this: The G9a AlphaLISA assay was used to detect the methyl modifications of a biotinylated histone H3 peptide by the compounds. These modifications are done by the histone methyl transferase activity of the G9a enzyme. The assay consists of reading a chemiluminescent signal at 615 nm; this signal is generated by a laser excitation at 680 nm that transfers a reactive singlet oxygen between the donor beads and acceptor beads. Donor beads are streptavidin conjugated and bind to the biotin on the peptide. Acceptor beads are conjugated with an antibody that recognizes the specific G9a methyl mark on the peptide. If there is a methyl mark on the peptide, the acceptor beads will bind to the peptide. Upon binding, the acceptor beads will be in close proximity (<200 nm) of the donor beads and when the donor beads are excited, the transfer of the oxygen can occur and a strong signal will be generated. If there is no methyl mark, the interaction between beads will not occur and signal will be at background levels.
For the assay, the following buffer was used to set up reactions: 50 mM Tris-HCl pH9, 50 mM NaCl, 0.01% Tween-20 and 1 mM DTT (added fresh prior to starting the reactions). The assay is set up by adding a final concentration of 0.15 nM G9a, 15 uM S-adenosyl-methionine and, 100 nM biotinylated histone 3 peptide (1-21). The reaction is incubated at room temperature for 1 hour, and subsequently quenched by the addition of the acceptor beads (anti-H3k9me2 AlphaLISA acceptor beads, PerkinElmer # AL117) at a final concentration of 20 ug/mL. The acceptor beads are incubated for 1 hour. After 1 hour, the donor beads are added at a final concentration of 20 ug/mL (Alpha Streptavidin donor beads, PerkinElmer #6760002). Donor beads are incubated for 0.5 hours. Both donor and acceptor beads are resuspended in AlphaLISA 5X Epigenetics Buffer 1 Kit (PerkinElmer # AL008) prior to addition to the reaction. All manipulations and incubations with the donor and acceptor beads are done in subdued light. Signal is detected in an EnVision plate reader in Alpha mode (see ACS Med Chem Lett. 2014 Jan. 2; 5(2):205-9. doi: 10.1021/m1400496h. eCollection 2014. Discovery and development of potent and selective inhibitors of histone methyltransferase g9a.)
Percent inhibition was calculated for each compound dilution and the concentration that produced 50% inhibition was calculated. This value is presented as the IC50.
(In general: In Alpha technology, singlet oxygen from a donor bead excites a nearby acceptor bead.)

Counter-ions that a name gives are not always drawn.

Consider `COc1cc2c3c(c(C4CC4)nc2cc1OCCCN1CCCC1)CC(C)(C)N3` [Example 36, 1-[3-({4-cyclopropyl-8-methoxy-2,2-dimethyl-1H,2H,3H-pyrrolo[3,2-c]quinolin-7-yl}oxy)propyl]pyrrolidine formate], for which the IC50 was found to be 0.009 µM. Consider `COc1cc2c3c(c(O)nc2cc1OCCCN1CCCC1)CCC3` [Example 37, 8-methoxy-7-[3-(pyrrolidin-1-yl)propoxy]-1H,2H,3H-cyclopenta[c]quinolin-4-ol trifluoroacetate], for which the IC50 turned out to be 1.3 µM. For `COc1cc2c3c(c(O)nc2cc1OCCCN1CCCC1)CCCC3` [Example 38, 2-methoxy-3-[3-(pyrrolidin-1-yl)propoxy]-7,8,9,10-tetrahydrophenanthridin-6-ol trifluoroacetate], the IC50 turned out to be 3 µM.

Consider `COc1cc2c3c(c(NC4CCN(C(C)C)CC4)nc2cc1OCCCN1CCCC1)CCCC3` [Example 39, 2-methoxy-N-[1-(propan-2-yl)piperidin-4-yl]-3-[3-(pyrrolidin-1-yl)propoxy]-7,8,9,10-tetrahydrophenanthridin-6-amine trifluoroacetate], for which the IC50 stood at 3 µM. On to `COc1cc2c3c(cnc2cc1OCCCN1CCCC1)CCCC3` [Example 40, 2-methoxy-3-[3-(pyrrolidin-1-yl)propoxy]-7,8,9,10-tetrahydrophenanthridine trifluoroacetate], for which the IC50 is 1.3 µM. The same measure for `COc1cc2c3c(c(NC4CCN(C)CC4)nc2cc1OCCCN1CCCC1)CCC3` [Example 41, N-{8-methoxy-7-[3-(pyrrolidin-1-yl)propoxy]-1H,2H,3H-cyclopenta[c]quinolin-4-yl}-1-methylpiperidin-4-amine formate]: 0.5 µM; for `COc1cc2c3c(c(NC4CCN(C(C)C)CC4)nc2cc1OCCCN1CCCC1)CCC3` [Example 43, N-{8-methoxy-7-[3-(pyrrolidin-1-yl)propoxy]-1H,2H,3H-cyclopenta[c]quinolin-4-yl}-1-(propan-2-yl)piperidin-4-amine formate]: 1.7 µM. Regarding `COc1cc2c3c(c(NC4COC4)nc2cc1OCCCN1CCCC1)CCC3` [Example 44, 8-methoxy-N-(oxetan-3-yl)-'7-[3-(pyrrolidin-1-yl)propoxy]-1H,2H,3H-cyclopenta[c]quinolin-4-amine formate], the IC50 amounted to 5.8 µM. In the case of `COc1cc2nc(NC(C)C)c3c(c2cc1OCCCN1CCCC1)COC3` [Example 45, 7-methoxy-N-(propan-2-yl)-8-[3-(pyrrolidin-1-yl)propoxy]-1H,3H-furo[3,4-c]quinolin-4-amine], the IC50 came out at 4.3 µM. Regarding `COc1cc2c3c(c(NC(C)C)nc2cc1OCCCN1CCCC1)COC3` [Example 46, 8-methoxy-N-(propan-2-yl)-7-[3-(pyrrolidin-1-yl)propoxy]-1H,3H-furo[3,4-c]quinolin-4-amine], the IC50 amounted to 0.26 µM. As to `COc1cc2nc(NC3CC3)c3c(c2cc1OCCCN1CCCC1)COC3` [Example 47, N-cyclopropyl-7-methoxy-8-[3-(pyrrolidin-1-yl)propoxy]-1H,3H-furo[3,4-c]quinolin-4-amine], the IC50 worked out at 3.1 µM. `COc1cc2c3c(c(NC4CC4)nc2cc1OCCCN1CCCC1)COC3` [Example 48, N-cyclopropyl-8-methoxy-7-[3-(pyrrolidin-1-yl)propoxy]-1H,3H-furo[3,4-c]quinolin-4-amine]: the IC50 was 0.97 µM.

In the case of `COc1cc2c3c(c(NCC4CCC4)nc2cc1OCCCN1CCCC1)CCC3` [Example 49, N-(cyclobutylmethyl)-8-methoxy-7-[3-(pyrrolidin-1-yl)propoxy]-1H,2H,3H-cyclopenta[c]quinolin-4-amine formate], the IC50 was 0.046 µM.

In the case of `COc1cc2c3c(c(NC(C)C)nc2cc1OCCCN1CCCC1)COCC3` [Example 50, 9-methoxy-N-(propan-2-yl)-8-[3-(pyrrolidin-1-yl)propoxy]-1H,2H,4H-pyrano[3,4-c]quinolin-5-amine formate], the IC50 was 0.24 µM. For the molecule `COc1cc2c3c(c(NC(C)C)nc2cc1OCC1CCN(C)C1)CCCC3` (stereo not drawn) [Example 51, 2-methoxy-3-[(1-methylpyrrolidin-3-yl)methoxy]-N-(propan-2-yl)-7,8,9,10-tetrahydrophenanthridin-6-amine formate], the IC50 is 0.88 µM. The same measure for `COc1cc2c(cc1OCCCN1CCCC1)nc(NC(C)C)c1cccnc12` [Example 52, 9-methoxy-N-(propan-2-yl)-8-[3-(pyrrolidin-1-yl)propoxy]benzo[h]1,6-naphthyridin-5-amine formate]: 0.34 µM; for `CNc1nc2cc(OCCCN3CCCC3)c(OC)cc2c2c1CC(C)(C)C2` [Example 53, 8-methoxy-N,2,2-trimethyl-7-[3-(pyrrolidin-1-yl)propoxy]-1H,2H,3H-cyclopenta[c]quinolin-4-amine formate]: 0.043 µM. Next, `COc1cc2c3c(c(NC(C)C)nc2cc1OCCCN1CCCC1)CC(C)(C)C3` [Example 54, 8-methoxy-2,2-dimethyl-N-(propan-2-yl)-7-[3-(pyrrolidin-1-yl)propoxy]-1H,2H,3H-cyclopenta[c]quinolin-4-amine formate]: 0.048 µM. As for `COc1cc2c3c(c(NC4CC4)nc2cc1OCCCN1CCCC1)COCC3` [Example 55, N-cyclopropyl-9-methoxy-8-[3-(pyrrolidin-1-yl)propoxy]-1H,2H,4H-pyrano[3,4-c]-quinolin-5-amine formate], the IC50 was determined as 0.32 µM. Next, `COc1cc2c(cc1OCCCN1CCCC1)nc(O)n1nccc21` [Example 56, 9-methoxy-8-[3-(pyrrolidin-1-yl)propoxy]pyrazolo[1,5-c]quinazolin-5-ol formate]: 0.46 µM; `CNc1nc2cc(OCCCN3CCCC3)c(OC)cc2c2c1COCC2` [Example 57, 9-methoxy-N-methyl-8-[3-(pyrrolidin-1-yl)propoxy]-1H,2H,4H-pyrano[3,4-c]quinolin-5-amine formate]: 0.21 µM. Next, `CCNc1nc2cc(OCCCN3CCCC3)c(OC)cc2c2c1COCC2` [Example 58, N-ethyl-9-methoxy-8-[3-(pyrrolidin-1-yl)propoxy]-1H,2H,4H-pyrano[3,4-c]quinolin-5-amine formate]: 0.17 µM. Next, `CNc1nc2cc(OCCCN3CCCC3)c(OC)cc2c2c1COC2` [Example 59, 8-methoxy-N-methyl-7-[3-(pyrrolidin-1-yl)propoxy]-1H,3H-furo[3,4-c]quinolin-4-amine formate]: 0.23 µM; `CCNc1nc2cc(OCCCN3CCCC3)c(OC)cc2c2c1COC2` [Example 60, N-ethyl-8-methoxy-7-[3-(pyrrolidin-1-yl)propoxy]-1H,3H-furo[3,4-c]quinolin-4-amine formate]: 0.21 µM.
